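Step 1: Grow cells in 96-well plates. Step 2: Expose to compound for 48 hours at 5 concentrations. Step 3: Interpolate endpoints linearly; if unreached, use highest concentration. The concentration for full growth arrest is given as TGI.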
Tests used:
Test in all cases: inhibition of tumour cell growth, NCI panel, 48 h
[1] = test system: HCT-116 colon
[2] = test system: SF-295 CNS
[3] = test system: OVCAR-3 ovarian
[4] = test system: SK-OV-3 ovarian
[5] = test system: MALME-3M melanoma
[6] = test system: SF-539 CNS
[7] = test system: T-47D breast
[8] = test system: CCRF-CEM leukemia
[9] = test system: IGROV1 ovarian
[10] = test system: NCI-H522 lung
[11] = test system: NCI-H23 lung
[12] = test system: SK-MEL-28 melanoma
[13] = test system: NCI-H226 lung
[14] = test system: CAKI-1 renal

Structure (SMILES)	TGI [1]	TGI [2]	TGI [3]	TGI [4]	TGI [5]	TGI [6]	TGI [7]	TGI [8]	TGI [9]	TGI [10]	TGI [11]	TGI [12]	TGI [13]	TGI [14]
NC(N)=NCCC[C@H](N)C(=O)NCC(=O)N[C@@H](CC(=O)O)c1ncc(NC(=O)C(F)(F)F)o1	> 25 µM	> 25 µM	> 25 µM	> 25 µM	> 25 µM	> 25 µM	> 25 µM	> 25 µM	> 25 µM	> 25 µM	> 25 µM	> 25 µM	> 25 µM	–
Cc1ccc(SCC(CF)OC(C)n2cnc3c(=O)[nH]c(N)nc32)cc1 (stereo not given)	> 100 µM	> 100 µM	> 100 µM	> 100 µM	> 100 µM	> 100 µM	> 100 µM	> 100 µM	> 100 µM	> 100 µM	> 100 µM	> 100 µM	> 100 µM	> 100 µM
CCN(CC)C(=O)Cn1c(C)cc2ccccc21	> 100 µM	> 100 µM	> 100 µM	> 100 µM	> 100 µM	> 100 µM	> 100 µM	> 100 µM	> 100 µM	> 100 µM	> 100 µM	> 100 µM	> 100 µM	> 100 µM
COc1ccc2ccccc2c1/C=C/C(=O)c1ccccc1	11 µM	15.6 µM	7.23 µM	11.2 µM	26.3 µM	7.23 µM	8.32 µM	4.17 µM	16.2 µM	14.6 µM	9.69 µM	17.9 µM	11.1 µM	15 µM
O=C(c1ccc(N=Cc2ccccc2O)cc1)c1ccc(N=Cc2ccccc2O)cc1	> 100 µM	> 100 µM	> 100 µM	> 100 µM	> 100 µM	> 100 µM	> 100 µM	–	> 100 µM	> 100 µM	> 100 µM	> 100 µM	> 100 µM	> 100 µM
COC(CNC(=O)C(C)NC(=O)CCc1ccccc1)OC (stereo not given)	> 100 µM	> 100 µM	–	> 100 µM	> 100 µM	> 100 µM	> 100 µM	> 100 µM	> 100 µM	> 100 µM	> 100 µM	> 100 µM	> 100 µM	> 100 µM
CSc1ncnc2c1ncn2C1CC(Oc2ccc(C)cc2)C(COc2ccc(C)cc2)O1 (stereo not given)	> 100 µM	> 100 µM	> 100 µM	> 100 µM	> 100 µM	> 100 µM	> 100 µM	> 100 µM	> 100 µM	> 100 µM	> 100 µM	> 100 µM	> 100 µM	> 100 µM
Oc1c(CN2CCOCC2)ccc2cccnc12	> 10 µM	> 10 µM	> 10 µM	> 10 µM	> 10 µM	> 10 µM	> 10 µM	7.56 µM	> 10 µM	7.81 µM	> 10 µM	> 10 µM	> 10 µM	> 10 µM
N=C(N)c1ccc(C(NC(=O)CNS(=O)(=O)c2ccc3ccccc3c2)P(=O)(Oc2ccccc2)Oc2ccccc2)cc1 (stereo not given)	> 100 µM	–	> 100 µM	> 100 µM	> 100 µM	71.3 µM	> 100 µM	> 100 µM	> 100 µM	> 100 µM	> 100 µM	> 100 µM	38.8 µM	> 100 µM
C(=Nc1ccc(-c2nc3ccccc3[nH]2)cc1)c1cccs1	> 100 µM	> 100 µM	> 100 µM	> 100 µM	> 100 µM	> 100 µM	> 100 µM	> 100 µM	> 100 µM	> 100 µM	> 100 µM	> 100 µM	> 100 µM	> 100 µM
Cc1cc(S(=O)(=O)N=C2N(Cc3ccccc3)CCN2Cc2ccccc2)c(S)cc1Cl	> 100 µM	> 100 µM	> 100 µM	> 100 µM	> 100 µM	> 100 µM	> 100 µM	> 100 µM	> 100 µM	> 100 µM	> 100 µM	> 100 µM	> 100 µM	> 100 µM
O=C1CSC(c2cccc(Oc3ccccc3)c2)N1c1ccc(Cl)cc1 (stereo not given)	37.9 µM	> 100 µM	> 100 µM	> 100 µM	56.7 µM	> 100 µM	91.9 µM	> 100 µM	–	49.4 µM	> 100 µM	> 100 µM	> 100 µM	> 100 µM
CCN(CC)C(=S)N/N=C(/C)c1cccc(/C(C)=N\NC(=S)N(CC)CC)n1	11.4 µM	6.7 µM	7.44 µM	5.43 µM	7.41 µM	3.28 µM	16.9 µM	> 100 µM	8.08 µM	16 µM	19.2 µM	3.88 µM	4.77 µM	5.29 µM
Cc1ccc(N=Nc2c(O)ccc3cc(S(=O)(=O)O)cc(S(=O)(=O)O)c23)cc1	> 100 µM	> 100 µM	> 100 µM	> 100 µM	> 100 µM	> 100 µM	> 100 µM	> 100 µM	> 100 µM	> 100 µM	> 100 µM	> 100 µM	> 100 µM	> 100 µM
COc1cc(C(=O)N(Cc2cccnc2)C(=S)N(Cc2cccnc2)C(=O)c2cc(OC)c(OC)c(OC)c2)cc(OC)c1OC	> 100 µM	> 100 µM	> 100 µM	> 100 µM	> 100 µM	> 100 µM	> 100 µM	> 100 µM	–	97.5 µM	> 100 µM	> 100 µM	> 100 µM	> 100 µM
O=C(O)Cc1cccc2c(=O)c3ccccc3oc12	> 100 µM	> 100 µM	> 100 µM	41.9 µM	> 100 µM	> 100 µM	61.7 µM	> 100 µM	> 100 µM	> 100 µM	> 100 µM	> 100 µM	> 100 µM	> 100 µM
O=C(N/N=C\c1cccc2c([N+](=O)[O-])cccc12)Nc1ccccc1	16.1 µM	32.5 µM	29.4 µM	–	38 µM	27.3 µM	20.4 µM	33.9 µM	40.1 µM	38.4 µM	35.2 µM	31.9 µM	31.2 µM	25.5 µM
Cc1c(S(=O)(=O)/N=C(\NO)Nc2ccc(Cl)c(Cl)c2)sc2ccc(Cl)cc12	37 µM	33.6 µM	31.1 µM	–	42.6 µM	45.1 µM	36.7 µM	> 100 µM	34.5 µM	41.3 µM	36.6 µM	42.5 µM	43.8 µM	38.2 µM
CCN(CC)CCNc1nc2ccc([N+](=O)[O-])cc2[n+]([O-])n1	49.6 µM	82.1 µM	> 100 µM	–	4.28 µM	54.2 µM	40.6 µM	85.3 µM	38.3 µM	> 100 µM	47.4 µM	> 100 µM	> 100 µM	> 100 µM
COc1cc(/C=C2/C[C@H]3[C@@H]4CC=C5C[C@@H](O)CC[C@]5(C)[C@H]4CC[C@]3(C)NC2=O)cc(OC)c1OC	> 66.3 µM	> 65.3 µM	> 100 µM	> 92.3 µM	32.8 µM	> 100 µM	> 100 µM	> 100 µM	38.1 µM	21.7 µM	> 62.7 µM	> 100 µM	> 58.5 µM	> 59.9 µM
Nc1nc(N)c2ncn(-c3ccc(Cl)cc3)c2n1	> 100 µM	> 100 µM	> 100 µM	53.3 µM	> 100 µM	80.5 µM	> 100 µM	66.1 µM	96.3 µM	> 100 µM	> 100 µM	> 100 µM	> 100 µM	> 100 µM
CCCCN1C(=O)N(c2ccc(OCC)cc2)C2N(CCCC)C1C(C)(C)C2(C)C (stereo not given)	> 100 µM	> 100 µM	54 µM	57 µM	73.1 µM	41.9 µM	> 100 µM	63.7 µM	> 100 µM	> 100 µM	> 100 µM	> 100 µM	49.3 µM	93.8 µM
O=C1CC(=Nc2ccc(Cl)cc2)C(c2ccccc2)N1c1ccccc1 (stereo not given)	65.1 µM	> 100 µM	14.5 µM	51.6 µM	90.8 µM	94.8 µM	6.27 µM	–	> 100 µM	7.22 µM	70.9 µM	> 100 µM	85.7 µM	5.71 µM
O=c1[nH]nc(-c2ccccc2)c2[nH]c3c4ccccc4ccc3c12	> 100 µM	–	–	> 100 µM	> 100 µM	3.17 µM	> 100 µM	> 100 µM	> 100 µM	> 100 µM	32.7 µM	–	> 100 µM	–
COc1cc(/C=C2\C(=O)N(c3ccccc3)C(c3ccccc3)S2(=O)=O)cc(OC)c1OC (stereo not given)	> 100 µM	> 100 µM	> 100 µM	> 100 µM	> 100 µM	> 100 µM	> 100 µM	56.8 µM	–	> 100 µM	> 100 µM	> 100 µM	> 100 µM	> 100 µM

Source: PubChem BioAssay (NCI)
